Source: publication PMC8632988, “Inhibition of SYK and cSrc kinases can protect bone and cartilage in preclinical models of osteoarthritis and rheumatoid arthritis” (Scientific Reports, 2021)
Where “and” joins values, the source holds several entries; their conditions need not be identical. Equal entries are not always repeated.

Test system: DBA/1 mice, CIA model
Test: Collagen-induced arthritis model in mice
Format: in vivo, mouse
Set-up: Total AUC Sum (d1-11) / Total AUC Sum (d1-11), Mean: scale not given here
Protocol: Collagen-induced arthritis (CIA) model was performed at Bolder BioPATH, USA. Study design and animal usage was approved by Bolder BioPATH’s Institutional Animal Care and Use Committee. CIA was induced in 6–7 week old male DBA/1 mice with body weight of 15–26 g (Harlan, Inc) by intradermal injection of Freund’s Complete Adjuvant (Difco) containing bovine type II collagen (Bolder BioPATH) on day 0 and again on day 21 according to the standard protocol. […] After that mice were randomized into six groups: a control group of four, vehicle group and four treatment groups of ten mice each. […] Each paw was scored daily for inflammation. Therapeutic and prophylactic paws were considered. At study termination mice were euthanized by CO2 inhalation followed by cervical dislocation. Fore paws, hind paws, and knees were removed for microscopy.
Mice were weighed on arthritis days 1, 3, 5, 7, 9, and 11 (prior to necropsy). Daily clinical scores were given for each of the paws (right front, left front, right rear, left rear) on days 1–11 using the following criteria:
After 1–2 days in fixative and 4–5 days in 5% formic acid for decalcification, tissues were trimmed, processed for paraffin embedding, sectioned at 8 µm and stained with toluidine blue. Hind paws and knees were embedded and sectioned in the frontal plane. Two joints from each animal were processed for histopathology evaluation. The joints were then scored by two independent readers as indicated below. When scoring, severity of changes as well as number of individual joints affected were considered. When only 1–3 joints of the paws or ankles out of a possibility of numerous metacarpal/metatarsal/digit or tarsal/tibiotarsal joints were affected, an arbitrary assignment of a maximum score of 1, 2 or 3 for parameters below was given depending on severity of changes. If more than 3 joints were involved, the criteria below were applied to the most severely affected/majority of joints.

[1] = all joints, MT-SYK-03 103 mg/kg PO, BID (Group 4)
[2] = all joints, MT-SYK-03 103 mg/kg PO, BID (Group 4), group mean
[3] = all joints, MT-SYK-03 103 mg/kg PO, BID (Group 4), individual animals, 103 mg/kg

## COc1cc(Nc2ncnc(Nc3cc4c(cn3)NC(=O)C(C)(C)O4)n2)cc(OC)c1OC [MT-SYK-03]
MT-SYK-03 103 mg/kg PO, BID, Day 11
  % inhibition to Vehicle, Summed Prophylactic (Non-Enrollment) Paw Score: 17%
MT-SYK-03 103 mg/kg PO, BID, Day 11, group mean
  Summed Prophylactic (Non-Enrollment) Paw Score: 7.30
MT-SYK-03 103 mg/kg PO, BID, Day 11, individual animals, 103 mg/kg
  Summed Prophylactic (Non-Enrollment) Paw Score: 9 and 3 and 12 and 8 and 2 and 10 and 7 and 5
MT-SYK-03 103 mg/kg PO, BID, group mean
  Total AUC Sum (d1-11), Prophylactic (Non-Enrollment) Paw Score: 54.15
MT-SYK-03 103 mg/kg PO, BID, individual animals, 103 mg/kg
  Total AUC Sum (d1-11), Prophylactic (Non-Enrollment) Paw Score: 67.5 and 27.5 and 71.0 and 61.0 and 12.0 and 80.0 and 70.5 and 51.5 and 63.0 and 37.5
[1]
  % inhibition, Bone Resorption score: 29%
  % inhibition, Cartilage Damage score: 17%
  % inhibition, Inflammation score: 7%
  % inhibition, Pannus score: 29%
  % inhibition, Periosteal Bone Formation score: 18%
  % inhibition, Periosteal Bone Width: 20%
  % inhibition, Summed Scores: 18%
[2]
  Histopathology Scores Bone Resorption, Mean: 1.23
  Histopathology Scores Cartilage Damage, Mean: 2.74
  Histopathology Scores Inflammation, Mean: 3.44
  Histopathology Scores Pannus, Mean: 1.23
  Histopathology Scores Periosteal Bone Formation, Mean: 0.93
  Histopathology Scores Summed Scores, Mean: 9.58
  Periosteal Bone Width (40*25x measure), Mean: 79.33 μm
[3]
  Histopathology Scores Bone Resorption: 0.83 and 0.75 and 1.17 and 1.92 and 1.42 and 2.00 and 1.75 and 0.33
  Histopathology Scores Cartilage Damage: 2.33 and 2.00 and 2.58 and 4.00 and 1.67 and 2.75 and 4.17 and 3.25 and 0.67
  Histopathology Scores Inflammation: 2.83 and 3.17 and 3.83 and 4.67 and 1.92 and 3.42 and 4.50 and 4.33
  Histopathology Scores Pannus: 0.83 and 0.75 and 1.17 and 1.92 and 1.42 and 2.00 and 1.75 and 0.33
  Histopathology Scores Periosteal Bone Formation: 0.67 and 1.17 and 1.33 and 0.33 and 1.67 and 0.83
  Histopathology Scores Summed Scores: 7.50 and 7.33 and 9.92 and 13.83 and 5.42 and 10.17 and 11.58 and 12.67 and 3.58
  Periosteal Bone Width (40*25x measure): 40.00 μm and 53.33 μm and 106.67 μm and 120.00 μm and 33.33 μm and 86.67 μm and 140.00 μm and 80.00 μm and 26.67 μm
Murine CIA
  Histopathology scores for knee and ankle joints: decreased histopathology scores
  Periosteal bone width of paw and knee joints: slightly decreased
Murine CIA, 103 mg/kg oral
  Cartilage damage, bone resorption and inflammation in knees (microphotographs): decreasing of cartilage damage, bone resorption and inflammation in knees
Murine CIA, MT-SYK-03 103 mg/kg oral
  Clinical arthritis score (severity of inflammation): reduced the severity of inflammation
therapeutic/enrollment paw score, MT-SYK-03 103 mg/kg PO, BID (Group 4)
  % inhibition to Vehicle, Total AUC Sum (d1-11): 6%
therapeutic/enrollment paw score, MT-SYK-03 103 mg/kg PO, BID (Group 4), group mean
  Total AUC Sum (d1-11), Mean: 59.75
therapeutic/enrollment paw score, MT-SYK-03 103 mg/kg PO, BID (Group 4), individual animals, 103 mg/kg
  Total AUC Sum (d1-11): 79 and 81 and 73 and 33 and 42 and 102 and 83 and 38 and 36
therapeutic/enrollment paws, Day 1, MT-SYK-03 103 mg/kg PO, BID (Group 4)
  % inhibition to Vehicle, paw score Day 1: 0%
therapeutic/enrollment paws, Day 1, MT-SYK-03 103 mg/kg PO, BID (Group 4), group mean
  Average Paw Score Per Arthritis Day, Day 1, Mean: 3.20
therapeutic/enrollment paws, Day 1, MT-SYK-03 103 mg/kg PO, BID (Group 4), individual animals, 103 mg/kg
  Average Paw Score Per Arthritis Day, Day 1: 4 and 2 and 6
therapeutic/enrollment paws, Day 2, MT-SYK-03 103 mg/kg PO, BID (Group 4)
  % inhibition to Vehicle, paw score Day 2: 19%
therapeutic/enrollment paws, Day 2, MT-SYK-03 103 mg/kg PO, BID (Group 4), group mean
  Average Paw Score Per Arthritis Day, Day 2, Mean: 3.80
therapeutic/enrollment paws, Day 2, MT-SYK-03 103 mg/kg PO, BID (Group 4), individual animals, 103 mg/kg
  Average Paw Score Per Arthritis Day, Day 2: 4 and 6 and 2 and 3
therapeutic/enrollment paws, Day 3, MT-SYK-03 103 mg/kg PO, BID (Group 4)
  % inhibition to Vehicle, paw score Day 3: 8%
therapeutic/enrollment paws, Day 3, MT-SYK-03 103 mg/kg PO, BID (Group 4), group mean
  Average Paw Score Per Arthritis Day, Day 3, Mean: 5.40
therapeutic/enrollment paws, Day 3, MT-SYK-03 103 mg/kg PO, BID (Group 4), individual animals, 103 mg/kg
  Average Paw Score Per Arthritis Day, Day 3: 6 and 8 and 3 and 4 and 9
therapeutic/enrollment paws, Day 4, MT-SYK-03 103 mg/kg PO, BID (Group 4)
  % inhibition to Vehicle, paw score Day 4: 6%
therapeutic/enrollment paws, Day 4, MT-SYK-03 103 mg/kg PO, BID (Group 4), group mean
  Average Paw Score Per Arthritis Day, Day 4, Mean: 5.80
therapeutic/enrollment paws, Day 4, MT-SYK-03 103 mg/kg PO, BID (Group 4), individual animals, 103 mg/kg
  Average Paw Score Per Arthritis Day, Day 4: 7 and 8 and 6 and 4 and 10 and 3
therapeutic/enrollment paws, Day 5, MT-SYK-03 103 mg/kg PO, BID (Group 4)
  % inhibition to Vehicle, paw score Day 5: 6%
therapeutic/enrollment paws, Day 5, MT-SYK-03 103 mg/kg PO, BID (Group 4), group mean
  Average Paw Score Per Arthritis Day, Day 5, Mean: 6.20
therapeutic/enrollment paws, Day 5, MT-SYK-03 103 mg/kg PO, BID (Group 4), individual animals, 103 mg/kg
  Average Paw Score Per Arthritis Day, Day 5: 8 and 7 and 4 and 11 and 3 and 9
therapeutic/enrollment paws, Day 6, MT-SYK-03 103 mg/kg PO, BID (Group 4)
  % inhibition to Vehicle, paw score Day 6: 5%
therapeutic/enrollment paws, Day 6, MT-SYK-03 103 mg/kg PO, BID (Group 4), group mean
  Average Paw Score Per Arthritis Day, Day 6, Mean: 6.30
therapeutic/enrollment paws, Day 6, MT-SYK-03 103 mg/kg PO, BID (Group 4), individual animals, 103 mg/kg
  Average Paw Score Per Arthritis Day, Day 6: 8 and 4 and 11 and 3 and 9
therapeutic/enrollment paws, Day 7, MT-SYK-03 103 mg/kg PO, BID (Group 4)
  % inhibition to Vehicle, paw score Day 7: 3%
therapeutic/enrollment paws, Day 7, MT-SYK-03 103 mg/kg PO, BID (Group 4), group mean
  Average Paw Score Per Arthritis Day, Day 7, Mean: 6.60
therapeutic/enrollment paws, Day 7, MT-SYK-03 103 mg/kg PO, BID (Group 4), individual animals, 103 mg/kg
  Average Paw Score Per Arthritis Day, Day 7: 9 and 8 and 4 and 11
therapeutic/enrollment paws, Day 8, MT-SYK-03 103 mg/kg PO, BID (Group 4)
  % inhibition to Vehicle, paw score Day 8: 3%
therapeutic/enrollment paws, Day 8, MT-SYK-03 103 mg/kg PO, BID (Group 4), group mean
  Average Paw Score Per Arthritis Day, Day 8, Mean: 6.80
therapeutic/enrollment paws, Day 8, MT-SYK-03 103 mg/kg PO, BID (Group 4), individual animals, 103 mg/kg
  Average Paw Score Per Arthritis Day, Day 8: 10 and 9 and 3 and 5 and 11 and 4
therapeutic/enrollment paws, Day 9, MT-SYK-03 103 mg/kg PO, BID (Group 4)
  % inhibition to Vehicle, paw score Day 9: 5%
therapeutic/enrollment paws, Day 9, MT-SYK-03 103 mg/kg PO, BID (Group 4), group mean
  Average Paw Score Per Arthritis Day, Day 9, Mean: 6.90
therapeutic/enrollment paws, Day 9, MT-SYK-03 103 mg/kg PO, BID (Group 4), individual animals, 103 mg/kg
  Average Paw Score Per Arthritis Day, Day 9: 10 and 9 and 3 and 5 and 12 and 4
therapeutic/enrollment paws, Day 10, MT-SYK-03 103 mg/kg PO, BID (Group 4)
  % inhibition to Vehicle, paw score Day 10: 7%
therapeutic/enrollment paws, Day 10, MT-SYK-03 103 mg/kg PO, BID (Group 4), group mean
  Average Paw Score Per Arthritis Day, Day 10, Mean: 6.90
therapeutic/enrollment paws, Day 10, MT-SYK-03 103 mg/kg PO, BID (Group 4), individual animals, 103 mg/kg
  Average Paw Score Per Arthritis Day, Day 10: 10 and 9 and 3 and 5 and 12 and 4
therapeutic/enrollment paws, Day 11, MT-SYK-03 103 mg/kg PO, BID (Group 4)
  % inhibition to Vehicle, paw score Day 11: 7%
therapeutic/enrollment paws, Day 11, MT-SYK-03 103 mg/kg PO, BID (Group 4), group mean
  Average Paw Score Per Arthritis Day, Day 11, Mean: 6.90
therapeutic/enrollment paws, Day 11, MT-SYK-03 103 mg/kg PO, BID (Group 4), individual animals, 103 mg/kg
  Average Paw Score Per Arthritis Day, Day 11: 10 and 9 and 3 and 5 and 12 and 4
